Experiments:
armyworm = experiment: Insecticidal activity against armyworm (airbrush spray); type: in vivo; conditions: second instar larvae, mortality after 72 h
Experimental: (§1) Compounds were dissolved in mixed solvent (acetone:methanol=1:1), and diluted to required concentration with water containing 0.1% of tween 80.
(§2) Diamond back moth, armyworm, Green Peach Aphid and carmine spider mite were used as targets and the method of spraying by airbrush was used for determination of insecticidal biassays.
The method of spraying by airbrush: The corn leaves were made into plates of 2 cm diameter by use of punch. A test solution (0.5 ml) was sprayed by airbrush at the pressure of 0.7 kg/cm^2 to both sides of every plate. 10 Second instar larvae were put into the petri-dishes after the leaf disc air-dried and 3 replicates were set for each treatment. Then the insects were maintained in observation room (25° C., 60˜70% R.H.). Scores were conducted and mortalities were calculated after 72 h.

carmine spider mite = experiment: Acaricidal activity against carmine spider mite (airbrush spray); type: in vivo; conditions: Tetranychus cinnabarinus; 100 mg/L, adults, mortality after 72 hrs
Experimental: as §1, §2
Method: Broadbean shoots with two true leaves in pot were taken, the healthy adults of carmine spider mite were inoculated to the leaves. The adults were counted and then sprayed with airbrush at the pressure of 0.7 kg/cm^2 and at dose of 0.5 ml. 3 replicates were set for each treatment. And then they were maintained in standard observation room. Scores were conducted and mortalities were calculated after 72 hrs.

cucumber gray mold = experiment: Fungicidal activity in vitro (96-well, High Through Put), cucumber gray mold; type: cell-based; conditions: 25 mg/L, 24 hours
cucumber downy mildew = experiment: Protectant activity in vivo (whole plant), cucumber downy mildew
Experimental: (§3) The method is as followed: The whole plant is used in this test. The compound is dissolved in a proper solvent to get mother solution. The proper solvent is selected from acetone, methanol, DMF and so on according to their dissolving capability to the sample. […] The testing solution is sprayed to the host plant by a special plant sprayer. The plant is inoculated with fungus after 24 hours. According to the infecting characteristic of fungus, the plant is stored in a humidity chamber and then transferred into greenhouse after infection is finished. And the other plants are placed in greenhouse directly. The activity of compound is obtained by eyeballing after 7 days in common.

rice blast = experiment: microbe, parasite or virus in culture; type: cell-based
wheat powdery mildew = experiment: Protectant activity in vivo (whole plant), wheat powdery mildew
Experimental: as §3

diamond back moth = experiment: Insecticidal activity against diamond back moth (airbrush spray); type: in vivo; conditions: mortality after 72 h
Experimental: as §1, §2
The method of spraying by airbrush: The cabbage leaves were made into plates of 2 cm diameter by use of punch. A test solution (0.5 ml) was sprayed by airbrush at the pressure of 0.7 kg/cm^2 to both sides of every plate. 10 Second instar larvae were put into the petri-dishes after the leaf disc air-dried and 3 replicates were set for each treatment. Then the insects were maintained in observation room (25° C., 60˜70% R.H.). Scores were conducted and mortalities were calculated after 72 h.

[1] = tested on: Green peach aphids (Myzus Persicae Sulzer); experiment: Activity against green peach aphid (airbrush foliar spray); type: in vivo; conditions: death rate after 48 h
Experimental: as §1, §2
Method: Filter papers were put in culture dishes (Diameter=6 cm), and water was dripped on filter papers for preserving moisture. Green peach aphids (Myzus Persicae Sulzer) were maintained on cabbage. Leaves (Diameter=3 cm) of approximately 15-30 aphids were put in the culture dishes. Bioactivity tests were used the method of Airbrush Foliar Spray, pressure=10 psi (0.7 kg/cm2), spray volume=0.5 mL. The studies were conducted at three constant temperatures 25±1 C. in incubator cabinets with 60±5% RH. Survey the survival aphids after 48 h and calculate the death rates.

corn rust = experiment: Protectant activity in vivo (whole plant), corn rust
Experimental: as §3

[2] = tested on: human bladder cancer cell line T24; experiment: In vitro cell inhibition assay against human cancer cell T24; type: cell-based; conditions: 10 μM, incubation for one week, crystal violet
Experimental: The tested compounds are dissolved in DMSO and diluted to designed concentration with culture medium.
The of cell culture technology in vitro was selected to evaluate growth inhibition rate against human bladder cancer cell line T24. 1000 to 3000 cells were inoculated into 24-well plate, followed by addition of cell culture medium (1 mL) known for technicans in this field (culture medium is RMPI-1640), after cells were cultured in incubator (CO2 5%, 37° C.) for 24 hours, then the tested compounds with designed concentration were added to each well. […] After incubation for one week, the culture medium was removed, the plate wells were washed with cold PBS once, fixed with 1% formalin at room temperature for 10 minutes, and washed with cold PBS one more time, followed by stain with 0.1% crystal violet for 30 minutes. Crystal violet can be recycled. The stained cells were washed with deionized water gently, dried in the air and reserved, were then incubated for 4 h. The inhibition rate was calculated according to the left cells of each treatment and contrast.
The inhibition rate=the left cells of each treatment/the left cells of contrast×100%

Row | Compound | protectant activity against wheat powdery mildew (wheat powdery mildew; 6.25 mg/L) [%] | protectant activity against wheat powdery mildew (wheat powdery mildew; 25 mg/L) [%] | protectant activity against wheat powdery mildew (wheat powdery mildew; 100 mg/L) [%] | protectant activity against wheat powdery mildew (wheat powdery mildew; 400 mg/L) [%] | inhibition rate against bladder cancer cell line T24 [2] [%] | Insecticidal activity against peach aphid ([1]; 10 mg/L) [%] | Insecticidal activity against peach aphid (control) ([1]; 100 mg/L) [%] | Insecticidal activity against peach aphid (control) ([1]; 600 mg/L) [%] | protectant activity against corn rust (corn rust; 6.25 mg/L) [%] | protectant activity against corn rust (corn rust; 25 mg/L) [%] | protectant activity against corn rust (corn rust; 100 mg/L) [%] | protectant activity against corn rust (corn rust; 400 mg/L) [%] | also measured
1 | c1ccc2c(NCc3ccc4c(c3)OCO4)ncnc2c1 [CK13] |  |  |  |  |  |  |  |  |  |  |  |  | pest or weed control at 600 µg/mL (armyworm; 600 mg/L): 0%; pest or weed control at 100 µg/mL (carmine spider mite): 0%; inhibition at 25 µg/mL (cucumber gray mold; read-out: inhibition rate against cucumber gray mold): 0%; pest or weed control at 400 µg/mL (cucumber downy mildew; Cucumis sativus, 168 h, 400 mg/L, read-out: protectant activity against cucumber downy mildew): 0%; inhibition at 25 µg/mL (rice blast; Pyricularia oryzae, 24 h, read-out: inhibition rate against rice blast): 0%; pest or weed control at 400 µg/mL (wheat powdery mildew; Triticum aestivum, 168 h, 400 mg/L, read-out: protectant activity against wheat powdery mildew): 0%; pest or weed control at 600 µg/mL (diamond back moth; 600 mg/L, read-out: control of the second instar larvae of diamond back moth): 0%; pest or weed control at 10 µg/mL ([1]; Myzus persicae, foliar, 48 h, 10 mg/L, read-out: Insecticidal activity against peach aphid): 0%; pest or weed control at 100 µg/mL ([1]; Myzus persicae, foliar, 48 h, 100 mg/L, read-out: Insecticidal activity against peach aphid (control)): 0%; pest or weed control at 600 µg/mL ([1]; Myzus persicae, foliar, 48 h, 600 mg/L, read-out: Insecticidal activity against peach aphid (control)): 50%; pest or weed control at 100 µg/mL (corn rust; Zea mays, 168 h, 100 mg/L, read-out: protectant activity against corn rust): 0%; pest or weed control at 400 µg/mL (corn rust; Zea mays, 168 h, 400 mg/L, read-out: protectant activity against corn rust): 40%
2 | Cc1ncnc(NCCc2ccc3c(c2)OCO3)c1Cl [Compound 5] | 75 | 85 | 100 | 100 | 100 | 0 | 52 | 100 | 100 | 100 | 100 | 100 | protectant activity against cucumber downy mildew (cucumber downy mildew; 12.5 mg/L): 100%; protectant activity against cucumber downy mildew (cucumber downy mildew; 25 mg/L): 100%; protectant activity against cucumber downy mildew (cucumber downy mildew; 50 mg/L): 100%; protectant activity against cucumber downy mildew (cucumber downy mildew; 100 mg/L): 100%; protectant activity against cucumber downy mildew (cucumber downy mildew; 400 mg/L): 100%; inhibition rate against rice blast (rice blast; in vitro, 25 mg/L, 24 hours): 80%
3 | CCc1ncnc(NCCc2ccc3c(c2)OCO3)c1Cl [Compound 6] | 85 | 90 | 95 | 100 | 100 | 100 | 100 | 100 | 90 | 100 | 100 | 100 | control of the armyworm (armyworm; 100 mg/L): 90%; control of the armyworm (armyworm; 600 mg/L): 90%; inhibition rate against cucumber gray mold (cucumber gray mold): 80%; control of the second instar larvae of diamond back moth (diamond back moth; 100 mg/L): 90%; control of the second instar larvae of diamond back moth (diamond back moth; 600 mg/L): 100%

From patent publication US9447081B2, “Substituted pyrimidines as pharmaceuticals and insecticides” (SHENYANG SINOCHEM AGROCHEMICALS R&D CO., LTD., priority 2012, dated 2016)
